Experimental data taken from US4481137A, “Glycoproteins and processes for their production” (Mochida Pharmaceutical Co., Ltd., priority 1982, dated 1984).
≈ marks a conversion by molar mass, not a printed value. Where “and” joins values, the source holds several entries; their conditions need not be identical. Identical values can stand only once.

Key:
[1] = system: acute myelogenous leukemia cells M-1; test: Effect on inducing differentiation of tumor cells; assay type: cell-based; details: 20.0 ng/ml, 48 h (control 1)
Procedure: According to the method of Hozumi, M. et al (Cancer Research, Vol, 40, 2919-2924 (1980)), 5×10^5 cells of acute myelogenous leukemia cells M-1 (supplied from Dr. Motoo Hozumi, Saitama Cancer Center) were suspended in 1 ml of Eagle's medium containing 10% calf serum and also containing amino acids and vitamins in amounts twice the ordinary levels, to which each test substance had been added, and cultured at 37° C. for 48 hours in a 5% CO2, 95% air atmosphere. Thereafter, the cells were resuspended in a medium containing 0.2% polystyrene latex particles (Dow Chemical Co.) and incubated at 37° C. for 4 hours. Then the total number of cells which phagocytotized the particles and the total number of cells were counted under a light microscope, and the differentiation rate was calculated from the ratio of these cells.

L1210 cells = test: Selectivity of cytotoxic effect, L1210 cells (leukemia); assay type: cell-based, Mouse; details: L1210, 48 h, 37°C
Procedure: (§1) Samples of 10^5 cells of each of tumor cell lines including KB cells (nasopharynx cancer), MX-1 cells (breast cancer, supplied from Dr. Shigeru Tsukagoshi, Cancer Institute), HEp-2 cells (throat cancer) and HEL cells (hepatoma, Flow Co.) and of normal cell lines including intestine 407 cells, Girardi heart cells, Chang Liver cells, Vero cells (monkey kidney) and MDCK cells (dog kidney) (Flow Co.), all of which had been precultured for 24 hours respectively, and 10^5 cells of each of P388 and L1210 cells (leukemia, supplied from Dr. Shigeru Tsukagoshi, Cancer Institute), which were used immediately, were each cultured in 1 ml of Eagle's medium containing 10% calf serum and each test substance at 37° C. for 48 hours in a 5% CO2, 95% air atmosphere. Thereafter the number of the viable cells not stained by Trypan Blue was counted under a light microscope, and the concentration of the test substance at which 50% of the cells are killed was calculated against a control taken as 100. […] One unit of the Lymphotoxins and CBF is expressed by a conventional index which is based on the cytotoxicity on mouse L cells (Eds., Bloom, B. R. & Grade, P. R. "In Vitro Methods in Cell-mediated Immunity", Academic Press,1979).

Ehrlich ascites tumor = test: Influence on mice transplanted with Ehrlich ascites tumor, survival; assay type: in vivo, mouse
Description: (§2) Male mice (ddY-Strain) weighing 25-30 g were intraperitoneally transplanted with 3×10^6 cells per animal of Sarcoma 180 or Ehrlich ascites tumor and the period of survival in days was observed.

P388 cells = test: Selectivity of cytotoxic effect, P388 cells (leukemia); assay type: cell-based, Mouse; details: P388, 48 h, 37°C
Procedure: as §1

Chang Liver cells = test: Selectivity of cytotoxic effect, normal cells Chang Liver; assay type: cell-based, Human; details: 48 h, 37°C
Procedure: as §1

mouse leukemia P388 = test: Influence on the survival days of leukemic mice, P388; assay type: in vivo
Description: (§3) BDF1 -strain male mice weighing 20-25 g were intraperitoneally transplanted with 10^5 cells per animal of mouse leukemia L1210 or 10^6 cells per animal of mouse leukemia […], and the period of survival in days was observed.

Sarcoma 180 = test: Influence on mice transplanted with Sarcoma 180, survival; assay type: in vivo, mouse
Description: as §2

HEp-2 cells = test: Selectivity of cytotoxic effect, HEp-2 cells (throat cancer); assay type: cell-based, Human; details: HEp-2, 48 h, 37°C
Procedure: as §1

Lewis's lung carcinoma = test: Influence on the survival days of lung carcinoma bearing mice; assay type: in vivo, mouse
Description: BDF1 -strain male mice weighing 20-25 g were transplanted with 2×10^6 cells of Lewis's lung carcinoma intramuscularly to the right thigh, and the survival days were observed.

[2] = system: Primary Culture Rat Liver; test: Selectivity of cytotoxic effect, primary culture rat liver; assay type: cell-based; details: primary culture rat liver (normal), 48 h, 37°C; read-out: Concentration for 50% Inhibition of Growth
human breast cancer MX-1 = test: Influence on breast cancer bearing mice; assay type: in vivo, BALB/C strain nude mice; details: daily dose 0.5 mg/kg, mean ± SE (control 9.7 ± 2.2)
Procedure: BALB/C strain nude mice weighing 20-25 g, 6 animals in each group, had transplanted subcutaneously into their backs 2 mm square segments of human breast cancer MX-1. CBX3 obtained in Example 26 or 29 was intravenously administered into the mice for 14 days from the 14th day after the transplantation. On the 15th day after the first administration,the volume of the primary tumor was measured.

[3] = system: tumor cells and normal cells; test: Cytotoxicity, selectivity tumor cells versus normal cells; assay type: cell-based
Description: One unit of CB is defined to be the amount of the substance at which the growth of 10^5 nasopharynx cancer of KB cell is inhibited by 50%.
as §1

mouse melanoma B 16 = test: Influence on the survival period of melanoma bearing mice; assay type: in vivo
Description: BDF1 -strain male mice weighing 20-25 g had transplanted subcutaneously in their back 10^6 cells per animal of mouse melanoma B 16, and the survival days were observed.

HEL cells = test: Selectivity of cytotoxic effect, HEL cells (hepatoma); assay type: cell-based, Human; details: 48 h, 37°C
Procedure: as §1

Vero cells = test: Selectivity of cytotoxic effect, normal cells Vero (monkey kidney); assay type: cell-based; details: 48 h, 37°C
Procedure: as §1

KB cells = test: Selectivity of cytotoxic effect, KB cells (nasopharynx cancer); assay type: cell-based, Human; details: 48 h, 37°C
Procedure: as §1

MX-1 cells = test: Selectivity of cytotoxic effect, MX-1 cells (breast cancer); assay type: cell-based, Human; details: MX-1, 48 h, 37°C
Procedure: as §1

[4] = system: 3-Methylcholanthrene-induced tumor; test: Influence on methylcholanthrene-induced tumor; assay type: in vivo, ddY-strain mice; details: daily dose 0.5 mg/kg, mean ± SE (control 10.5 ± 2.3)
Procedure: 3-Methylcholanthrene dissolved in olive oil was subcutaneously injected to the lateral abdomen of ddY-strain mice, weighing 20-25 g, 8 animals in each group, at 0.5 mg per mouse. CBX3 obtained in Example 26 or 29 was intravenously administered to the mice once a day for 21 days from about 60 days after the 3-Methylcholanthren injection. On the 21st day after the first CBX3 administration, the volume of the tumor was measured.

mouse leukemia L1210 = test: Influence on the survival days of leukemic mice, L1210; assay type: in vivo
Description: as §3

intestine 407 cells = test: Selectivity of cytotoxic effect, normal cells intestine 407; assay type: cell-based, Human; details: intestine 407 (normal), 37°C
Procedure: as §1

MDCK cells = test: Selectivity of cytotoxic effect, normal cells MDCK (dog kidney); assay type: cell-based; details: 48 h, 37°C
Procedure: as §1

Lewis's lung cancer = test: Influence on the lung metastasis of cancer; assay type: in vivo, mouse; details: mean ± SE
Procedure: Groups of BDF1 -strain male mice weighing 20-30 g, 6 animals in each group, had transplanted subcutaneously into their backs 2 mm square segments of Lewis's lung cancer. […] On the 21st day after transplantation, the mass of primary tumor was isolated and weighed, and the number of the metastasized nodes in the animal's lungs was calculated according to the method of Wexler, H. (J. Natl. Cancer Institute, Vol. 36 641 (1966)).

[5] = system: tumor cells and normal cells; details: as reported in the literature; cited from earlier work
[6] = Mus musculus, read-out: Concentration for 50% Inhibition of Growth
[7] = daily dose 0.5 mg/kg, 0.5 mg/kg
[8] = Homo sapiens, read-out: Concentration for 50% Inhibition of Growth

## C[C@@H]1C[C@H]2[C@@H]3CCC4=CC(=O)C=C[C@]4(C)[C@@]3(F)[C@@H](O)C[C@]2(C)[C@@]1(O)C(=O)CO [Dexamethasone]
[1]
  Differentiation Rate: 25%

## CO[C@@]12[C@H](COC(N)=O)C3=C(C(=O)C(C)=C(N)C3=O)N1C[C@@H]1N[C@@H]12 [Mitomycin C]
L1210 cells
  Concentration for 50% Inhibition of Growth: 44 µg/mL
L1210 cells; [6]
  IC50: 43 µg/mL (≈ 129 µM)
Ehrlich ascites tumor; [7]
  Average Survival Days (% of control group): 168% and 164% and 166%
P388 cells; [6]
  IC50: 36 µg/mL (≈ 108 µM)
P388 cells
  Concentration for 50% Inhibition of Growth: 37 µg/mL
Chang Liver cells
  Concentration for 50% Inhibition of Growth: 21 µg/mL
Chang Liver cells; Homo sapiens, Chang liver, read-out: Concentration for 50% Inhibition of Growth
  IC50: 19 µg/mL (≈ 56.8 µM)
Mouse leukemia P388; P388, daily dose 0.5 mg/kg, 0.5 mg/kg
  Average Survival Days (% of control group): 133% and 130%
Mouse leukemia P388; P388, dose 5.0 mg/kg (Table 4-3)
  Average Survival Days (% of control group): 141%
Sarcoma 180; Sarcoma 180, daily dose 0.5 mg/kg, 0.5 mg/kg
  Average Survival Days (% of control group): 140% and 138% and 142%
HEp-2 cells
  Concentration for 50% Inhibition of Growth: 18 µg/mL
HEp-2 cells; [8]
  IC50: 17 µg/mL (≈ 50.8 µM)
Lewis's lung carcinoma; [7]
  Average Survival Days (% of control group): 121% and 120%
[2]
  IC50: 61 µg/mL (≈ 182 µM)
Human breast cancer MX-1
  Tumor Volume: 4.4 ± 1.1 cm^3
[3]
  Cytotoxicity, selectivity for tumor cells over normal cells (in words): nonselective cytotoxicity to the normal cells and the tumor cells
Mouse melanoma B 16; melanoma B 16, daily dose 0.5 mg/kg, 0.5 mg/kg
  Average Survival Days (% of control group): 140%
HEL cells
  Concentration for 50% Inhibition of Growth: 25 µg/mL
HEL cells; [8]
  IC50: 26 µg/mL (≈ 77.8 µM)
Vero cells
  Concentration for 50% Inhibition of Growth: 50 µg/mL
Vero cells; Primates, Vero, read-out: Concentration for 50% Inhibition of Growth
  IC50: 52 µg/mL (≈ 156 µM)
KB cells
  Concentration for 50% Inhibition of Growth: 35 µg/mL
KB cells; [8]
  IC50: 34 µg/mL (≈ 102 µM)
MX-1 cells; Homo sapiens, MX1, 48 h, read-out: Concentration for 50% Inhibition of Growth
  IC50: 32 µg/mL (≈ 95.7 µM)
MX-1 cells
  Concentration for 50% Inhibition of Growth: 30 µg/mL
[4]
  Tumor Volume: 6.6 ± 1.3 cm^3
Mouse leukemia L1210; L1210, daily dose 0.5 mg/kg, 0.5 mg/kg
  Average Survival Days (% of control group): 128% and 136%
Mouse leukemia L1210; L1210, dose 5.0 mg/kg (Table 4-3)
  Average Survival Days (% of control group): 132%
Intestine 407 cells; Homo sapiens, Intestine 407, 48 h, read-out: Concentration for 50% Inhibition of Growth
  IC50: 32 µg/mL (≈ 95.7 µM)
Intestine 407 cells; 48 h
  Concentration for 50% Inhibition of Growth: 35 µg/mL
MDCK cells
  Concentration for 50% Inhibition of Growth: 44 µg/mL
MDCK cells; Canis lupus familiaris, MDCK, read-out: Concentration for 50% Inhibition of Growth
  IC50: 41 µg/mL (≈ 123 µM)

## O=P1(N(CCCl)CCCl)NCCCO1 (centres unmarked) [Cyclophosphamide]
Ehrlich ascites tumor; daily dose 20 mg/kg, 20 mg/kg
  Average Survival Days (% of control group): 212% and 206%
Mouse leukemia P388; P388, daily dose 20 mg/kg, 20 mg/kg
  Average Survival Days (% of control group): 147% and 145%
Sarcoma 180; Sarcoma 180, daily dose 20 mg/kg, 20 mg/kg
  Average Survival Days (% of control group): 172% and 170%
Lewis's lung cancer; Table 7-1 Experiment 1 (control 9.6 ± 1.9), daily dose printed 20 unit/kg
  Tumor Weight: 3.4 ± 0.7 g
Lewis's lung cancer; Table 7-1 Experiment 1 (control 29.2 ± 7.3), daily dose printed 20 unit/kg
  No. of Metastasized Nodes in Lung: 0.4 ± 0.2
Lewis's lung cancer; Table 7-2 (control 7.8 ± 0.5), daily dose printed 20 unit/kg
  Tumor Weight: 3.5 ± 0.6 g
Lewis's lung cancer; Table 7-2, daily dose printed 20 unit/kg
  No. of Metastasized Nodes in Lung: 0.6 ± 0.3
Lewis's lung carcinoma; daily dose 20 mg/kg, 20 mg/kg
  Average Survival Days (% of control group): 163% and 164%
Mouse melanoma B 16; melanoma B 16, daily dose 20 mg/kg
  Average Survival Days (% of control group): 158%
Mouse leukemia L1210; L1210, daily dose 20 mg/kg, 20 mg/kg
  Average Survival Days (% of control group): 172% and 149%

## Tumor Necrosis Factor
[5]
  Cytotoxic effect, selectivity for tumor cells over normal cells (in words): selective cytotoxic effect on tumor cells
